Source: patent US20070060558A1 (PALUMED S.A., priority 2004, published 2007)
In brackets after ≈: the same amount, converted by molar mass. Where two headings read alike, the source gives them in different places. Values belong to the molecule of their own block, whether it stands above or below them. Positions of bridges follow the written chain, without caps; N, C: chain ends. Non-standard residues stand in square brackets, D forms with d. Residues, ends and D or L forms follow the SMILES beside them. *: point of attachment. NMePhe(4-NMe2) = CN[C@@H](Cc1ccc(N(C)C)cc1)C(=O)O; Pip(4-oxo) = O=C1CCN[C@H](C(=O)O)C1; Picolinoyl(3-OH) = O=C(c1ncccc1O)*; Phg = N[C@H](C(=O)O)c1ccccc1; dAbu = CC[C@@H](N)C(=O)O

How the values were obtained:
E. coli CIP 54127 = experiment: Antibacterial activity (MIC); assay type: cell-based; settings: Escherichia coli, CIP54127; E. coli CIP 54127; read-out: MIC
[1] = test system: E. faecalis VRE CIP 104676; experiment: Antibacterial activity (MIC/MBC); assay type: cell-based, Enterococcus faecalis; settings: Enterococcus faecalis, E. faecalis VRE CIP 104676; for MIC: read-out: MIC
P. aeruginosa CIP 103467 = experiment: Antibacterial activity (MIC); assay type: cell-based; settings: Pseudomonas aeruginosa, CIP103467; P. aeruginosa CIP 103467; read-out: MIC
[2] = test system: Staphylococcus aureus MSSA CIP 4.83; experiment: Antibacterial activity (MIC/MBC); assay type: cell-based; settings: S. aureus MSSA CIP 4.83
H. influenzae CIP 102514 = experiment: Antibacterial activity (MIC/MBC); assay type: cell-based, Haemophilus influenzae; settings: Haemophilus influenzae, CIP102514
[3] = test system: B. thuringiensis CIP 104676; experiment: Antibacterial activity (MIC); assay type: cell-based; settings: Bacillus thuringiensis, CIP104676; B. thuringiensis CIP 104676; read-out: MIC
S. pneumoniae PRSP = experiment: Antibacterial activity (MIC), Table VII; assay type: cell-based; settings: Streptococcus pneumoniae; S. pneumoniae PRSP (Table VII); read-out: MIC
S. pyogenes CIP 56.41T = experiment: Antibacterial activity (MIC/MBC); assay type: cell-based, Streptococcus pyogenes; settings: S. pyogenes CIP 56.41T
[4] = test system: S. aureus MRSA clinical isolate; experiment: Antibacterial activity (MIC); assay type: cell-based, Staphylococcus aureus; settings: S. aureus MRSA clinical isolate
[5] = test system: S. pneumoniae PSSP CQI 201; experiment: Antibacterial activity (MIC); assay type: cell-based, Streptococcus pneumoniae; settings: S. pneumoniae PSSP CQI 201
C. difficile CIP 104282 = experiment: Antibacterial activity (MIC); assay type: cell-based, Clostridium difficile; settings: Clostridioides difficile, CIP104282; C. difficile CIP 104282; read-out: MIC
[6] = test system: S. epidermidis MRCNS (E93); experiment: Antibacterial activity (MIC); assay type: cell-based; settings: Staphylococcus epidermidis; S. epidermidis MRCNS (E93); read-out: MIC
[7] = test system: Staphylococcus aureus MSSA 53.154; experiment: Murine experimental septicaemia, in vivo efficacy; parameters: species or system mice; settings: sc, mice, subcutaneously at 1 and 6 h post infection, read-out: ED50
Method: Experimental septicaemia was induced in mice as follows. Briefly, male Swiss OF1 mice (IFFA CREDO-Charles River) weighing 18 to 20 grams were infected intraperitoneally with 0.5 mL of a bacterial suspension containing 8.5×10^7 cfu of Staphylococcus aureus MSSA 53.154 (Institut Pasteur). The hybrid molecules were administered subcutaneously at 1 and 6 h post infection. Control and treatment groups at each dose were composed of seven mice. All the infected but untreated control mice died within 9 days. The 50% effective dose (ED50) values were calculated by a computerized program (GraphPad) from the survival rates on day 9 after infection.

[8] = test system: S. epidermidis MSCNS (D10); experiment: Antibacterial activity (MIC); assay type: cell-based; settings: Staphylococcus epidermidis; S. epidermidis MSCNS (D10); read-out: MIC
[9] = test system: E. faecalis VRE VanB CIP106998; experiment: Antibacterial activity (MIC); assay type: cell-based; settings: Enterococcus faecalis; E. faecalis VRE VanB CIP106998; read-out: MIC
[10] = test system: E. faecium VRE VanA CIP107387; experiment: Antibacterial activity (MIC); assay type: cell-based; settings: Enterococcus faecium; E. faecium VRE VanA CIP107387; read-out: MIC
[11] = test system: E. faecalis VRE VanA CIP106996; experiment: Antibacterial activity (MIC); assay type: cell-based; settings: Enterococcus faecalis; E. faecalis VRE VanA CIP106996; read-out: MIC
S. aureus MsrA PUL 5054 = experiment: Antibacterial activity (MIC); assay type: cell-based; settings: Staphylococcus aureus
[12] = test system: S. pneumoniae PRSP (CQR 162); experiment: Antibacterial activity (MIC); assay type: cell-based; settings: Streptococcus pneumoniae; S. pneumoniae PRSP (CQR 162); read-out: MIC
[13] = test system: S. aureus VISA CIP 106757; experiment: Antibacterial activity (MIC); assay type: cell-based; settings: Staphylococcus aureus; S. aureus VISA CIP 106757; read-out: MIC
[14] = test system: S. pneumoniae PSSP CIP 6.92; experiment: Antibacterial activity (MIC/MBC); assay type: cell-based; settings: Streptococcus pneumoniae, CIP6
[15] = test system: S. pneumoniae PRSP CIP 104471; experiment: Antibacterial activity (MIC/MBC); assay type: cell-based, Streptococcus pneumoniae; settings: Streptococcus pneumoniae
M. catarrhalis CIP73.21T = experiment: Antibacterial activity (MIC/MBC); assay type: cell-based; settings: Moraxella catarrhalis
[16] = test system: S. pneumoniae PRSP clinical isolate; experiment: Antibacterial activity (MIC/MBC); assay type: cell-based, Streptococcus pneumoniae; settings: Streptococcus pneumoniae
[17] = Staphylococcus aureus, read-out: MIC
[18] = Streptococcus pyogenes, CIP56, read-out: MIC
[19] = Streptococcus pneumoniae, read-out: MIC

SMILES: CN[C@H](CC(C)C)C(=O)N[C@H]1C(=O)N[C@@H](CC(N)=O)C(=O)N[C@H]2C(=O)N[C@H]3C(=O)N[C@H](C(=O)N[C@H](C(=O)O)c4cc(O)cc(O)c4-c4cc3ccc4O)[C@H](O)c3ccc(c(Cl)c3)Oc3cc2cc(c3OC2OC(CO)C(O)C(O)C2OC2CC(C)(NCCNc3ccnc4cc(Cl)ccc34)C(O)C(C)O2)Oc2ccc(cc2Cl)[C@H]1O (some centres unmarked) [PA 1159]
- MIC (C. difficile CIP 104282): 0.16 µg/mL (≈ 0.0967 µM)
- MIC [6]: 0.05 µg/mL (≈ 0.0302 µM)
- ED50 ([7]; survival on day 9, hybrid molecules formulated in water as their bis(hydrochloride) salt): 0.37 mg/kg
- MIC (S. pyogenes CIP 56.41T; [18]): 0.125 µg/mL (≈ 0.0756 µM)
- MIC [8]: 0.2 µg/mL (≈ 0.121 µM)
- MIC [9]: 12.5 µg/mL (≈ 7.56 µM)
- MIC [10]: 25 µg/mL (≈ 15.1 µM)
- MIC [2, 17]: 0.2 µg/mL (≈ 0.121 µM)
- MIC [11]: 1.56 µg/mL (≈ 0.943 µM)
- MIC [4, 17]: 0.1 µg/mL (≈ 0.0605 µM)
- MIC (S. aureus MsrA PUL 5054): < 0.045 µg/mL
- MIC [5, 19]: 0.006 µg/mL (≈ 0.00363 µM)
- MIC [12]: 0.025 µg/mL (≈ 0.0151 µM)
- MIC [13]: 0.2 µg/mL (≈ 0.121 µM)

SMILES: CC(=O)OCC1=C(C(=O)O)N2C(=O)[C@@H](NC(=O)CNc3cc(C)nc4ccccc34)[C@H]2SC1 [PA 1101, (6R,7R-3-Acetoxymethyl-7-[2-2-methylquinolin-4-ylamino)acetylamino]-8-oxo-5-thia-1-aza-bicyclo[4.2.0]oct-2-ene-2-carboxylic acid]
- MBC [14]: 0.006 µg/mL (≈ 0.0128 µM)
- MIC [14]: 0.006 µg/mL (≈ 0.0128 µM)
- ED50 ([7]; survival on day 9, hybrid molecules formulated in water as their sodium salt): 0.13 mg/kg
- MBC (S. pyogenes CIP 56.41T; Streptococcus pyogenes, CIP56): 0.0015 µg/mL (≈ 0.00319 µM)
- MIC (S. pyogenes CIP 56.41T; [18]): 0.0015 µg/mL (≈ 0.00319 µM)
- MBC [15]: 0.78 µg/mL (≈ 1.66 µM)
- MIC ([15]; read-out: MIC): 0.2 µg/mL (≈ 0.425 µM)
- MBC [1]: 25 µg/mL (≈ 53.1 µM)
- MIC [1]: 25 µg/mL (≈ 53.1 µM)
- MBC ([2]; Staphylococcus aureus, read-out: MBC): 25 µg/mL (≈ 53.1 µM)
- MIC [2, 17]: 0.2 µg/mL (≈ 0.425 µM)
- MBC (H. influenzae CIP 102514): 12.5 µg/mL (≈ 26.6 µM)
- MIC (H. influenzae CIP 102514): 1.56 µg/mL (≈ 3.32 µM)
- MBC (M. catarrhalis CIP73.21T): 0.78 µg/mL (≈ 1.66 µM)
- MIC (M. catarrhalis CIP73.21T): 0.78 µg/mL (≈ 1.66 µM)
- MBC [16]: 0.39 µg/mL (≈ 0.829 µM)
- MIC ([16]; PRSP, read-out: MIC): 0.2 µg/mL (≈ 0.425 µM)

More lines, now with the values ahead:

- MIC (E. coli CIP 54127): 1.25 µg/mL
- MIC [1]: 0.625 µg/mL
- MIC (P. aeruginosa CIP 103467): > 5 µg/mL
- MIC [2, 17]: 0.156 µg/mL
- MIC (H. influenzae CIP 102514; H. influenzae CIP 102514, read-out: MIC): 0.625 µg/mL
- MIC [3]: 0.625 µg/mL
- MIC (S. pneumoniae PRSP): 0.039 µg/mL
SMILES: Cl.O=C(O)c1cn(C2CC2)c2cc(N3CCN(c4ccnc5cc(C(F)(F)F)ccc45)CC3)c(F)cc2c1=O [PA 1284, 1-Cyclopropopyl-6-fluoro-4-oxo-7-[4-(7-trifluoromethylquinolin-4-yl)-piperazin-1-yl]-1,4-dihydroquinoline-3-carboxylic acid hydrochloride salt]

- MIC (S. pyogenes CIP 56.41T): 1.25 µg/mL (≈ 1.44 µM)
- MIC [2]: 2.5 µg/mL (≈ 2.88 µM)
- MIC [4]: 5 µg/mL (≈ 5.77 µM)
- MIC [5]: 0.31 µg/mL (≈ 0.358 µM)
SMILES: CC[C@H]1NC(=O)[C@@H](NC(=O)c2ncccc2O)[C@@H](C)OC(=O)[C@H](c2ccccc2)NC(=O)[C@@H]2CC(=O)CCN2C(=O)[C@H](Cc2ccc(N(C)C)cc2)N(C)C(=O)[C@@H]2CCCN2C1=O [Pristinamycin IA, reference compound] ({Picolinoyl(3-OH)}-T[dAbu]P[NMePhe(4-NMe2)][Pip(4-oxo)][Phg]; ester 1-C)

- MIC (C. difficile CIP 104282): 0.16 µg/mL (≈ 0.303 µM)
- MIC [5, 19]: 1.25 µg/mL (≈ 2.37 µM)
SMILES: O=C(CCNc1ccnc2cc(Cl)ccc12)NC[C@H]1CN(c2ccc(N3CCOCC3)c(F)c2)C(=O)O1 [PA 1185, (5S)-3-(7-Chloroquinolin-4-ylamino)-N-[3-(3-fluoro-4-morpholin-4-yl-phenyl)-2-oxo-oxazolidin-5-ylmethyl]-propionamide]
